Experimental data as given in US20250154686A1, “COMPOUND LIBRARY” (CHUGAI SEIYAKU KABUSHIKI KAISHA, priority 2021, published 2025).

Molecular target: T1, Bcl-2 protein (Recombinant Human Bcl-2 Protein) (Homo sapiens, UniProt P10415)
T1 construct: purchased Novus Biologicals NBP2-34889
Experiment: AS-MS evaluation of binding of the Example 4 mixture library (1200 compounds/well) to Bcl-2, ASMS ratio (%)
Method in brief: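 A pooled 1200-compound mixture (20 nM each final) was incubated with 20 μM recombinant human Bcl-2 in pH 7.4 Tris-HCl buffer with NaCl, Tween-20 and DTT for 1 h at 23° C. in the dark. Bound ligands were separated by spin-column SEC and measured by reverse-phase LC/MS; ASMS ratio (%) was calculated against protein-free unfiltered standard and protein-free SEC blank.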

[1] = AS-MS, Example 4 mixture library, Bcl-2, replicate n = 2
[2] = AS-MS, mixture of 1200 compounds/well, Bcl-2 protein, replicate n = 1
[3] = AS-MS, mixture of 1200 compounds/well, Bcl-2 protein, replicate n = 2
[4] = replicate n = 1, mixture library, value belongs to the MS peak assigned to the compound
[5] = replicate n = 2, mixture library, value belongs to the MS peak assigned to the compound
[6] = AS-MS, Example 4 mixture library, Bcl-2, replicate n = 1

T1 sequence (P10415 whole entry): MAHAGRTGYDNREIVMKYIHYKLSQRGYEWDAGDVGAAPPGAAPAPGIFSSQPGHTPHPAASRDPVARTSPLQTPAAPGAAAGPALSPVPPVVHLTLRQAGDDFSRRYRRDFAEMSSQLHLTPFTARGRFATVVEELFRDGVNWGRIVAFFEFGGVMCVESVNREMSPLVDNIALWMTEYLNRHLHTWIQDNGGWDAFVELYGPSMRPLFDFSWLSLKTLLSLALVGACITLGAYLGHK

Compound	ASMS ratio (%) n = 2 [1] [%]	ASMS ratio (%) n = 1 [6] [%]	other results
CCOc1cncc(-c2cc(CN3CCN(c4ccc(C(=O)NS(=O)(=O)c5ccc(NCCSc6ccccc6)c(C(F)(F)F)c5)cc4)CC3)cc(OCC)c2)c1 [Compound B2R056-01, 4-[4-[[3-Ethoxy-5-(5-ethoxypyridin-3-yl)phenyl]methyl]piperazin-1-yl]-N-[4-(2-phenylsulfanylethylamino)-3-(trifluoromethyl)phenyl]sulfonylbenzamide]	−63.9	–	–
CCCNC(=O)c1ccc(N2CCN(C(=O)c3ccc(-c4cccc(OCC)c4)c4ccccc34)CC2)nn1 [Compound B1M013-01]	–	–	ASMS ratio (%) n = 1 [2]: 2.9%; ASMS ratio (%) n = 2 [3]: −1.1%
CCCNC(=O)c1ccc(N2CCN(C(=O)c3ccc(-c4cncc(OCC)c4)c(F)c3)CC2)nn1 [Compound B1M006-01]	–	–	ASMS ratio (%) n = 1 [2]: 0.0%; ASMS ratio (%) n = 2 [3]: 0.0%
CCOc1cccc(-c2ccc(CN3CCN(c4ccc(C(=O)NS(C)(=O)=O)nn4)CC3)cc2C)c1 [Compound B2I073-01, 6-[4-[[4-(3-Ethoxyphenyl)-3-methylphenyl]methyl]piperazin-1-yl]-N-methylsulfonylpyridazine-3-carboxamide]	–	–	ASMS ratio (%) n = 1 [4]: 0.0%; ASMS ratio (%) n = 2 [5]: 0.0%
CCCNC(=O)c1ccc(N2CCN(C(=O)c3ccccc3C#Cc3cncc(OCC)c3)CC2)nn1 [Compound B1M008-01]	–	–	ASMS ratio (%) n = 2 [3]: 0.0%
CCCNC(=O)c1ccc(N2CCN(C(=O)c3ccc(-c4cncc(OCC)c4)c4ccccc34)CC2)nn1 [Compound B1M014-01]	–	–	ASMS ratio (%) n = 1 [2]: 4.1%; ASMS ratio (%) n = 2 [3]: 0.4%
CCOc1cncc(C#Cc2ccccc2CN2CCN(c3ccc(C(=O)NS(=O)(=O)C(C)(C)C)cc3)CC2)c1 [Compound B2L070-01]	–	–	ASMS ratio (%) n = 1 [4]: 4.9%; ASMS ratio (%) n = 2 [5]: −4.2%
CCOc1cccc(-c2ccc(CN3CCN(c4ccc(C(=O)NS(=O)(=O)C(C)(C)C)nn4)CC3)c3ccccc23)c1 [Compound B2L091-01]	0.0	0.0	–
CCOc1cncc(-c2ccc(CN3CCN(c4ccc(C(=O)NS(=O)(=O)C(C)(C)C)nn4)CC3)cc2F)c1 [Compound B2L078-01, N-tert-Butylsulfonyl-6-[4-[[4-(5-ethoxypyridin-3-yl)-3-fluorophenyl]methyl]piperazin-1-yl]pyridazine-3-carboxamide]	–	–	ASMS ratio (%) n = 1 [4]: 1.1%; ASMS ratio (%) n = 2 [5]: −0.7%
4-[4-[[4-(3-Ethoxyphenyl)-3-methylphenyl]methyl]piperazin-1-yl]-N-propylbenzamide [Compound B1M058-01]	–	–	ASMS ratio (%) n = 1 [2]: −1.4%
CCOc1cncc(C#Cc2cc(C(=O)N3CCN(c4ccc(C(=O)NS(=O)(=O)CCC(F)(F)F)cc4)CC3)cc(C(F)(F)F)c2)c1 [Compound B2N042-01, 4-[4-[3-[2-(5-Ethoxypyridin-3-yl)ethynyl]-5-(trifluoromethyl)benzoyl]piperazin-1-yl]-N-(3,3,3-trifluoropropylsulfonyl)benzamide]	0.0	0.0	–
CCOc1cncc(C#Cc2cncc(C(=O)N3CCN(c4ccc(C(=O)NS(=O)(=O)c5ccc(NCCSc6ccccc6)c(C(F)(F)F)c5)nn4)CC3)c2)c1 [Compound B2R010-01, 6-[4-[5-[2-(5-Ethoxypyridin-3-yl)ethynyl]pyridine-3-carbonyl]piperazin-1-yl]-N-[4-(2-phenylsulfanylethylamino)-3-(trifluoromethyl)phenyl]sulfonylpyridazine-3-carboxamide]	0.0	0.0	–
CCOc1cccc(-c2cc(CN3CCN(c4ccc(C(=O)NS(=O)(=O)c5ccc(NCCSc6ccccc6)c(C(F)(F)F)c5)cc4)CC3)cc(OC(F)(F)F)c2)c1 [Compound B2R063-01, 4-[4-[[3-(3-Ethoxyphenyl)-5-(trifluoromethoxy)phenyl]methyl]piperazin-1-yl]-N-[4-(2-phenylsulfanylethylamino)-3-(trifluoromethyl)phenyl]sulfonylbenzamide]	4.6	8.2	–
CCCNC(=O)c1ccc(N2CCN(Cc3ccc(-c4cccc(OCC)c4)c4ccccc34)CC2)cc1 [Compound B1M065-01]	–	–	ASMS ratio (%) n = 1 [2]: 0.2%; ASMS ratio (%) n = 2 [3]: −6.4%
CCOc1cccc(C#Cc2cncc(C(=O)N3CCN(c4ccc(C(=O)NS(=O)(=O)c5ccc(NCCSc6ccccc6)c(C(F)(F)F)c5)nn4)CC3)c2)c1 [Compound B2R009-01, 6-[4-[5-[2-(3-Ethoxyphenyl)ethynyl]pyridine-3-carbonyl]piperazin-1-yl]-N-[4-(2-phenylsulfanylethylamino)-3-(trifluoromethyl)phenyl]sulfonylpyridazine-3-carboxamide]	19.5	0.0	–
CCOc1cncc(-c2ccc(C(=O)N3CCN(c4ccc(C(=O)NS(=O)(=O)CCC(F)(F)F)nn4)CC3)c3ccccc23)c1 [Compound B2N014-01, 6-[4-[4-(5-Ethoxypyridin-3-yl)naphthalene-1-carbonyl]piperazin-1-yl]-N-(3,3,3-trifluoropropylsulfonyl)pyridazine-3-carboxamide]	0.0	0.0	–
CCCNC(=O)c1ccc(N2CCN(C(=O)c3cc(-c4cncc(OCC)c4)cc(C(C)(C)C)c3)CC2)nn1 [Compound B1M016-01]	–	–	ASMS ratio (%) n = 1 [2]: 0.0%; ASMS ratio (%) n = 2 [3]: 0.0%
CCOc1cccc(C#Cc2ccccc2C(=O)N2CCN(c3ccc(C(=O)NS(=O)(=O)c4ccc(NCCSc5ccccc5)c(C(F)(F)F)c4)cc3)CC2)c1 [Compound B2R029-01, 4-[4-[2-[2-(3-Ethoxyphenyl)ethynyl]benzoyl]piperazin-1-yl]-N-[4-(2-phenylsulfanylethylamino)-3-(trifluoromethyl)phenyl]sulfonylbenzamide]	0.0	–	–
CCOc1cccc(C#Cc2ccccc2CN2CCN(c3ccc(C(=O)NS(C)(=O)=O)cc3)CC2)c1 [Compound B2I069-01, 4-[4-[[2-[2-(3-Ethoxyphenyl)ethynyl]phenyl]methyl]piperazin-1-yl]-N-methylsulfonylbenzamide]	–	–	ASMS ratio (%) n = 1 [4]: 0.0%; ASMS ratio (%) n = 2 [5]: −2.2%
CCOc1cccc(C#Cc2ccccc2CN2CCN(c3ccc(C(=O)NS(=O)(=O)c4ccc(NCCSc5ccccc5)c(C(F)(F)F)c4)nn3)CC2)c1 [Compound B2R095-01, 6-[4-[[2-[2-(3-Ethoxyphenyl)ethynyl]phenyl]methyl]piperazin-1-yl]-N-[4-(2-phenylsulfanylethylamino)-3-(trifluoromethyl)phenyl]sulfonylpyridazine-3-carboxamide]	5.5	42.2	–
CCOc1cccc(-c2ccc(C(=O)N3CCN(c4ccc(C(=O)NS(=O)(=O)c5ccc(NCCSc6ccccc6)c(C(F)(F)F)c5)cc4)CC3)cc2F)c1 [Compound B2R027-01, 4-[4-[4-(3-Ethoxyphenyl)-3-fluorobenzoyl]piperazin-1-yl]-N-[4-(2-phenylsulfanylethylamino)-3-(trifluoromethyl)phenyl]sulfonylbenzamide]	1.2	−3.7	–
CCOc1cccc(-c2ccccc2CCC(=O)N2CCN(c3ccc(C(=O)NS(=O)(=O)c4ccc(NCCSc5ccccc5)c(C(F)(F)F)c4)cc3)CC2)c1 [Compound B2R033-01, 4-[4-[3-[2-(3-Ethoxyphenyl)phenyl]propanoyl]piperazin-1-yl]-N-[4-(2-phenylsulfanylethylamino)-3-(trifluoromethyl)phenyl]sulfonylbenzamide]	−6.6	3.6	–
CCCNC(=O)c1ccc(N2CCN(C(=O)c3ccc(-c4cccc(OCC)c4)c(F)c3)CC2)cc1 [Compound B1M027-01]	–	–	ASMS ratio (%) n = 1 [2]: 1.0%; ASMS ratio (%) n = 2 [3]: 0.4%
CCOc1cncc(-c2cc(C(=O)N3CCN(c4ccc(C(=O)NS(=O)(=O)c5ccc(NCCSc6ccccc6)c(C(F)(F)F)c5)nn4)CC3)cc(C(F)(F)F)c2)c1 [Compound B2R018-01, 6-[4-[3-(5-Ethoxypyridin-3-yl)-5-(trifluoromethyl)benzoyl]piperazin-1-yl]-N-[4-(2-phenylsulfanylethylamino)-3-(trifluoromethyl)phenyl]sulfonylpyridazine-3-carboxamide]	7.8	5.1	–
CCOc1cncc(C#Cc2cncc(C(=O)N3CCN(c4ccc(C(=O)NS(=O)(=O)C(C)(C)C)nn4)CC3)c2)c1 [Compound B2L010-01]	–	–	ASMS ratio (%) n = 1 [4]: 0.0%; ASMS ratio (%) n = 2 [5]: 0.0%
CCOc1cncc(-c2ccc(C(C)N3CCN(c4ccc(C(=O)NS(=O)(=O)CCC(F)(F)F)cc4)CC3)c(F)c2)c1 (stereo not shown) [Compound B2N100-01, 4-[4-[1-[4-(5-Ethoxypyridin-3-yl)-2-fluorophenyl]ethyl]piperazin-1-yl]-N-(3,3,3-trifluoropropylsulfonyl)benzamide]	0.0	0.0	–
CCOc1cccc(-c2cnn(-c3cc(C(=O)N4CCN(c5ccc(C(=O)NS(C)(=O)=O)cc5)CC4)cc(C(F)(F)F)c3)c2)c1 [Compound B2I043-01, 4-[4-[3-[4-(3-Ethoxyphenyl)pyrazol-1-yl]-5-(trifluoromethyl)benzoyl]piperazin-1-yl]-N-methylsulfonylbenzamide]	–	–	ASMS ratio (%) n = 1 [4]: 0.0%; ASMS ratio (%) n = 2 [5]: 0.0%
CCOc1cccc(-c2cc(CN3CCN(c4ccc(C(=O)NS(=O)(=O)CCC(F)(F)F)nn4)CC3)cc(OC(F)(F)F)c2)c1 [Compound B2N089-01, 6-[4-[[3-(3-Ethoxyphenyl)-5-(trifluoromethoxy)phenyl]methyl]piperazin-1-yl]-N-(3,3,3-trifluoropropylsulfonyl)pyridazine-3-carboxamide]	0.0	–	–
CCOc1cccc(-c2csc(CN3CCN(c4ccc(C(=O)NS(=O)(=O)C(C)(C)C)nn4)CC3)c2)c1 [Compound B2L093-01]	0.0	–	–
